One assay addresses T1, rASIC1a (Rattus norvegicus, UniProt P55926).
T1 construct: expressed in transfected cells; host or cells: Xenopus laevis oocytes injected with cRNA
T1 sequence (P55926 1-526): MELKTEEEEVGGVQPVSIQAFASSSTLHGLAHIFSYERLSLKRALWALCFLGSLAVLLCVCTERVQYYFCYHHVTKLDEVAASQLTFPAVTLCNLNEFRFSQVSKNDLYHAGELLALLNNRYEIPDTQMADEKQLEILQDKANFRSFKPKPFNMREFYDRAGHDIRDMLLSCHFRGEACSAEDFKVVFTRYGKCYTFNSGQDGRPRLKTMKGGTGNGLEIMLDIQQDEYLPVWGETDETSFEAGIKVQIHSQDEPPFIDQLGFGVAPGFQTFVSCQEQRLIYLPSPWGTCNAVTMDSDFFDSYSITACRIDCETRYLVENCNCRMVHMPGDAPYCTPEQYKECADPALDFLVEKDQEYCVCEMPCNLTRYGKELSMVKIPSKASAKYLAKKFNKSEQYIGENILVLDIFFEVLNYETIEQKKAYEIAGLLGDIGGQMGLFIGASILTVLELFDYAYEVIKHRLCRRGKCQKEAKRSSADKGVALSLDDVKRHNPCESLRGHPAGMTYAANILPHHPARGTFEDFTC
In words: Two-electrode voltage clamp (TEVC) on Xenopus laevis oocytes expressing homomeric rASIC1a. Conditions: for Rapidly reversible inhibition: Table 1; for Rapidly reversible inhibition / Reversibility of inhibition (in words): upon washout; for Extent of inhibition of ASIC1a currents (full or incomplete): at saturating concentrations; for % Residual Current: current remaining at saturating peptide concentrations; for Potency compared to wild-type Hi1a (in words): point mutants. The assay is classed as cell-based. The procedure: The ability of the peptides of the invention to modulate ASIC currents was assessed using two-electrode voltage clamp (TEVC) electrophysiology experiments performed on Xenopus laevis oocytes expressing homomeric ASIC channels. Xenopus oocytes are widely used as an expression system for functional characterisation of ion channel modulators. TEVC allows measurement of whole-cell ion channel currents while controlling the membrane potential.
Oocytes were harvested from anaesthetised female X. laevis then defolliculated by treatment with collagenase (Sigma, type I). Oocytes were injected with in vitro transcribed ASIC cRNA (capped RNA). Oocytes were kept at 17-18° C. in ND96 solution containing 96 mM NaCl, 2 mM KCl, 1.8 mM CaCl2, 2 mM MgCl2, 5 mM HEPES, 5 mM pyruvic acid, 50 μg/ml gentamicin (pH 7.4), and fetal horse serum (2.5%), and experiments were performed at room temperature (21-22° C.) 1-3 days after cRNA injection. Oocytes were clamped at −60 mV (Warner OC-725C oocyte clamp; Warner Instruments, CT, USA) using two standard glass microelectrodes of 0.5-2 MΩ resistance when filled with 3 M KCl. Data acquisition and analysis were performed using pCLAMP software, Version 10 (Axon Instruments, CA, USA). Currents were elicited by a drop in pH from 7.45 to 6.0 using a microperfusion system to allow rapid solution exchange. All experiments were performed using ND96 solution spiked with 0.1% BSA in order to minimise adsorption of peptides to plastic tubing.

The test system of the next assay is ASIC1a. Conditions: McCarthy et al., 2015; cited from earlier work.
Assay [1] deals with spontaneously hypertensive rats (SHR). In words: Focal reperfusion (endothelin-1) stroke model in conscious SHR, i.c.v. administration. Format: in vivo, rat. Conditions: single i.c.v. dose two hours after stroke; Hi1a 2 ng/kg, PcTx1 and mutant 1 ng/kg; 72 h post-stroke. The procedure: The neuroprotective efficacy of Hi1a was assessed in a rat model of focal cerebral ischemia. In vivo experiments were conducted using a focal reperfusion model of stroke in conscious spontaneously hypertensive rats (SHR) as previously reported (McCarthy et al., Neuropharmacology 99, 650-657, 2015). Two 23-gauge stainless steel guide cannulae were stereotaxically implanted into anaesthetised animals (ketamine 75 mg/kg; xylazine 10 mg/kg; intraperitoneal) 5 days prior to stroke induction. The first cannula was implanted 3 mm dorsal to the right middle cerebral artery for stroke induction. The second cannula was implanted into the left lateral ventricle for drug administration. […]
Compared to models of middle cerebral artery occlusion (MCAO) achieved by surgical exposure of the artery, this model has the advantage of minimal surgical intervention in the brain, and the stroke is induced in the absence of anaesthetics, which can confound the results of drug studies (Callaway et al., 1999; Sharkey et al., 1993). Stroke-induced motor deficit was assessed by counting the number of foot faults made while rats traversed a gradually narrowing ledged beam (McCarthy et al., Stroke 40, 1482-1489, 2009). […] For the neurological score, postural abnormalities were assessed by elevating the rat by the tail above a flat surface and grading the severity of thorax twisting and the angle of forelimb extension. […]

“Also recorded” adds a separate entry of the source. Bridge positions count the residues as written; N and C are the ends. Ends that are not written are not given here. Peptide text beside a SMILES is read from it.

The values below come from US10881712B2, “Neuroprotective agents derived from spider venom peptides” (THE UNIVERSITY OF QUEENSLAND, priority 2015, dated 2021).

For the compound “SNECIRKWLSCVDRKNDCCEGLECWKRRHSFEVCVPIPGFCLVKWKQCDGRERDCCAGLECWKRSGNKSSVCAPIT (disulfide 4-19, 11-24, 18-34, 41-56, 48-61, 55-72) [Hi1a Y24W]”, on rASIC1a, the IC50 was 0.537 nM, the Rapidly reversible inhibition result was “No”, the “Extent of inhibition of ASIC1a currents (full or incomplete)” value (shortened to “Extent of inhibition of ASIC1a currents”) was “full inhibition” and the “% Residual Current” value came out at 0%.
As for “PcTx1 mutant iso 2: Double-mutant PcTx1 analogue (R27A/V32A) that is inactive against ASIC1a (EDCIPKWKGCVNRHGDCCEGLECWKRARSFEACVPKTPKT; ends and bridges not checked; cysteine pairing not given here; UniProt P60514 1-40, looked up, variant R27A V32A)”, the “Activity against ASIC1a” value in the assay with ASIC1a is “inactive”. The “Infarct size in cortical (penumbral) and striatal (core) regions” value in assay [1] is reported as “completely ineffective; also recorded: no effect”.
For the compound `CC[C@H](C)[C@@H]1NC(=O)[C@@H](NC(=O)[C@H](CCC(=O)O)NC(=O)[C@H](CC(N)=O)NC(=O)[C@@H](N)CO)CSSC[C@@H]2NC(=O)[C@@H]3CSSC[C@@H](C(=O)N[C@H](C(=O)N4CCC[C@H]4C(=O)N[C@H](C(=O)N4CCC[C@H]4C(=O)O)[C@@H](C)CC)C(C)C)NC(=O)[C@H](C(C)C)NC(=O)[C@H](CCC(=O)O)NC(=O)[C@H](Cc4ccccc4)NC(=O)[C@H](CO)NC(=O)[C@H](Cc4c[nH]cn4)NC(=O)[C@H](CCCNC(=N)N)NC(=O)[C@H](CCCNC(=N)N)NC(=O)[C@H](CCCCN)NC(=O)[C@H](Cc4ccc(O)cc4)NC(=O)[C@H](CSSC[C@H](NC(=O)[C@H](CO)NC(=O)[C@H](CC(C)C)NC(=O)[C@H](Cc4c[nH]c5ccccc45)NC(=O)[C@H](CCCCN)NC(=O)[C@H](CCCNC(=N)N)NC1=O)C(=O)N[C@@H](C(C)C)C(=O)N[C@@H](CC(=O)O)C(=O)N[C@@H](CCCNC(=N)N)C(=O)N[C@@H](CCCCN)C(=O)N[C@@H](CC(N)=O)C(=O)N[C@@H](CC(=O)O)C(=O)N3)NC(=O)[C@H](CCC(=O)O)NC(=O)[C@H](CC(C)C)NC(=O)CNC(=O)[C@H](CCC(=O)O)NC2=O` [Hi1a_N] (H-SNECIRKWLSCVDRKNDCCEGLECYKRRHSFEVCVPIP-OH; disulfide 4-19, 11-24, 18-34), on rASIC1a, the “Fold lower potency than PcTx1 or full-length Hi1a” value is on record as about 1000 fold, the “Extent of inhibition of ASIC1a currents” value was “fully inhibit” and the “Reversibility of inhibition (in words)” value is “fully reversible”.
Regarding “SEDCIPKWKGCVNRHGDCCEGLECWKRRRSFEVCVPKTGDCIPKWKGCVNRHGDCCEGLECWKRRRSFEVCVPKTPKT (disulfide 4-19, 11-24, 18-34, 41-56, 48-61, 55-71) [EP 2]”, at rASIC1a, the “Fold increase in IC50 (decrease in potency) relative to wild-type Hi1a” value was about 500 fold, the IC50 worked out at 215 nM, the Rapidly reversible inhibition entry is “No” and the “Extent of inhibition of ASIC1a currents” value is reported as “full inhibition”. In addition, at rASIC1a, the “% Residual Current” value came to 0% and the “Reversibility of inhibition (in words)” value is on record as “slowly reversible”.
For “SEDCIPKWKGCVNRHGDCCEGLECWKRRRSFEVCVPKTPKTIPGFCLVKWKQCDGRERDCCAGLECWKRSGNKSSVCAPIT (disulfide 4-19, 11-24, 18-34, 46-61, 53-66, 60-77) [PcTx1/Hi1a_C]”, at rASIC1a, the “Fold increase in IC50 (decrease in potency) relative to wild-type Hi1a” value was found to be 3 fold; the midpoint of inhibition, the IC50, lay at 1.3 nM; the Rapidly reversible inhibition entry is given as “No”; the “Extent of inhibition of ASIC1a currents” value is recorded as “incomplete inhibition”. In addition, on rASIC1a, the “% Residual Current” value is listed as about 35% and the “Reversibility of inhibition (in words)” value is listed as “slowly reversible”.
Regarding “SNECIRKWLSCVDRKNDCCEGLECYKRRHSFEVCVPGGGGGGFCLVKWKQCDGRERDCCAGLECWKRSGNKSSVCAPIT (disulfide 4-19, 11-24, 18-34, 44-59, 51-64, 58-75) [EP 3]”, on rASIC1a, the IC50 was over 4 nM and the “% Residual Current” value worked out at 80%. For the same compound, the “Inhibition of rASIC1a currents” value on rASIC1a (applied at up to 1 μM) is reported as at most 20%.
For “Hi1a_C: C-terminal ICK domain of Hi1a expressed separately in E. coli, SEQ ID NO:21 (IPGFCLVKWKQCDGRERDCCAGLECWKRSGNKSSVCAPIT; listed as Hadronyche infensa)”, the Effect on current result with rASIC1a (at 1 μM) is given as “minor potentiation”. The Inhibition result with rASIC1a (at 10 μM) is “negligible inhibition”. The Inhibitory effect result with rASIC1a (up to 30 μM) was “no observed inhibitory effect”.
As to “QECIAKWKSCAGRKLDCCEGLECWKRRWGHEVCVPITQKIFCLEKWKSCFERKYDCCEELECWERRGNKHPVCAPKQ (disulfide 3-18, 10-23, 17-33, 42-57, 49-62, 56-73) [Hi1d]”, at rASIC1a, the Rapidly reversible inhibition result was “Yes” and the “Extent of inhibition of ASIC1a currents” value is given as “complete”.
With “SNECIRKWLSCVDRKNDCCEGLECYKRRRSFEVCVPIPGFCLVKWKQCDGRERDCCAGLECWKRSGNKSSVCAPIT (disulfide 4-19, 11-24, 18-34, 41-56, 48-61, 55-72) [Hi1a H28R]”, on rASIC1a, the IC50 is 0.115 nM, the Rapidly reversible inhibition entry is “No”, the “% Residual Current” value is listed as 20% and the “Potency compared to wild-type Hi1a (in words)” value is “slightly increased potency”.
With “SEDCIPKWKGCVNRHGDCCEGLECWKRRRSFEVCVPKTEDCIPKWKGCVNRHGDCCEGLECWKRRRSFEVCVPKTPKT (disulfide 4-19, 11-24, 18-34, 41-56, 48-61, 55-71) [EP 1]”, on rASIC1a, the “Fold increase in IC50 (decrease in potency) relative to wild-type Hi1a” value is about 200 fold, the IC50 amounted to 64 nM, the Rapidly reversible inhibition result was “No” and the “Extent of inhibition of ASIC1a currents” value is recorded as “full inhibition”. For the same compound, at rASIC1a, the “% Residual Current” value is listed as 0% and the “Reversibility of inhibition (in words)” value was “slowly reversible”.
In the case of “SNECIRKWKSCVDRKNDCCEGLECYKRRHSFEVCVPIPGFCLVKWKQCDGRERDCCAGLECWKRSGNKSSVCAPIT (disulfide 4-19, 11-24, 18-34, 41-56, 48-61, 55-72) [Hi1a L8K]”, on rASIC1a, the IC50 amounted to 0.976 nM, the Rapidly reversible inhibition entry is recorded as “No”, the “% Residual Current” value is 30% and the “Potency compared to wild-type Hi1a (in words)” value is “little effect”.
